# Like-named read-outs stand apart in the source and are kept apart here.
# How the values were obtained:
# [1] = system: SREBP-2 transcriptional activity (SREBP2 cleavage) in HepG2_LSSprom cells; test: Luciferase reporter driven by a SREBP-2 specific promoter in HepG2_LSSprom cells; type: cell-based; conditions: 24 h, read-out: SREBP2 Cleavage (IC50 μM) 24 h
# Summary of the method: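 HepG2_LSSprom cells dosed at 0.625-10 μM in serum-free medium for 6 h (or 24 h), then luciferase luminescence read. Signal normalized to vehicle (100%); IC50 by four-parameter nonlinear fit; five independent experiments, triplicate wells.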
# [2] = Cytotoxicity assay (LDH release) in HepG2_LSSprom cells; type: cell-based; conditions: human, HepG2 LSSprom cells, 24 h treatment, LDH release
# Summary of the method: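 HepG2_LSSprom cells exposed to compound at 0.625–10 μM in serum-free medium for 6 h or 24 h. Medium LDH measured colorimetrically at 490 nm; release expressed as % of lysis control after vehicle subtraction, negatives set to 0; five independent experiments, triplicate wells, mean±SEM.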
# [3] = 24 h treatment, HepG2_LSSprom cells
Structure (SMILES),"IC50 [1, 3]",IC50 at 24 h [2],IC50 [1]
"CC(C)(C)c1cc(-c2cc(-c3ccc(C(=O)N4CCC(N)CC4)cc3Cl)cs2)ccn1 [Compound 72, 1-{4-[5-(2-tert-butylpyridin-4-yl)thiophen-3-yl]-3-chlorobenzoyl}piperidin-4-amine]",> 10 µM,> 10 µM,–
"CC(C)(C)c1cc(-c2csc(-c3ccc(C(=O)N(CCC(=O)O)c4ccc(F)cc4)cc3Cl)c2)ccn1 [Compound 73, 3-(N-[4-[4-(2-tert-butyl-4-pyridyl)-2-thienyl]-3-chloro-benzoyl]-4-fluoro-anilino)propanoic acid]",–,> 10 µM,> 3 µM
"CC(C)(C)c1cc(-c2csc(-c3ccc(C(=O)N4CCC[C@@H](N)C4)cc3Cl)c2)ccn1 [Compound 74a, (R)-(3-aminopiperidin-1-yl)(4-(4-(2-(tert-butyl)pyridin-4-yl)thiophen-2-yl)-3-chlorophenyl)methanone]",0.74 µM,> 10 µM,–
"CC(C)(C)c1cc(-c2csc(-c3ccc(C(=O)N4CCC[C@H](N)C4)cc3Cl)c2)ccn1 [Compound 74b, (3S)-1-{4-[4-(2-tert-butylpyridin-4-yl)thiophen-2-yl]-3-chlorobenzoyl}piperidin-3-amine]",0.51 µM,> 10 µM,–
"CNC1CCCN(C(=O)c2ccc(-c3csc(-c4ccnc(C(C)(C)C)c4)c3)c(Cl)c2)C1 (centres unmarked) [Compound 75, 1-{4-[5-(2-tert-butylpyridin-4-yl)thiophen-3-yl]-3-chlorobenzoyl}-N-methylpiperidin-3-amine]",3.2 µM,> 10 µM,–
"CC(C)(C)C(=O)NC1CCN(C(=O)c2ccc(-c3csc(-c4ccnc(C(C)(C)C)c4)c3)c(Cl)c2)CC1 [Compound 76, N-(1-{4-[5-(2-tert-butylpyridin-4-yl)thiophen-3-yl]-3-chlorobenzoyl}piperidin-4-yl)-2,2-dimethylpropanamide]",1.6 µM,> 10 µM,–
"Cc1sc(-c2ccc(C(=O)N3CCNC(=O)C3)cc2Cl)cc1-c1ccnc(C(C)(C)C)c1 [Compound 77, 4-{4-[4-(2-tert-butylpyridin-4-yl)-5-methylthiophen-2-yl]-3-chlorobenzoyl}piperazin-2-one]",2.3 µM,> 10 µM,–
"CC(C)(C)OC(=O)N1CCC(NC(=O)c2ccc(-c3csc(-c4ccnc(C(C)(C)C)c4)c3)c(Cl)c2)CC1 [Compound 78, tert-butyl 4-{4-[5-(2-tert-butylpyridin-4-yl)thiophen-3-yl]-3-chlorobenzamido}piperidine-1-carboxylate]",0.2 µM,> 10 µM,–
"CC(C)(C)c1cc(-c2cc(-c3ccc(C(=O)N4CCCC(NCc5ccc(Cl)cc5)C4)cc3Cl)cs2)ccn1 (centres unmarked) [Compound 80, 1-{4-[5-(2-tert-butylpyridin-4-yl)thiophen-3-yl]-3-chlorobenzoyl}-N-[(4-chlorophenyl)methyl]piperidin-3-amine]",0.06 µM,> 10 µM,–
"CC(C)(C)c1cc(-c2cc(-c3ccc(C(=O)N4CCCC(NCc5cccc(Cl)c5)C4)cc3Cl)cs2)ccn1 (centres unmarked) [Compound 81, 1-{4-[5-(2-tert-butylpyridin-4-yl)thiophen-3-yl]-3-chlorobenzoyl}-N-[(3-chlorophenyl)methyl]piperidin-3-amine]",0.14 µM,> 10 µM,–
"CC(C)(C)c1cc(-c2cc(-c3ccc(C(=O)N4CCC(O)C4)cc3Cl)cs2)ccn1 (centres unmarked) [Compound 82, [4-[5-(2-tert-butyl-4-pyridyl)-3-thienyl]-3-chloro-phenyl]-(3-hydroxypyrrolidin-1-yl)methanone]",0.5 µM,> 10 µM,–
"CC(C)(C)c1cc(-c2cc(-c3ccc(C(=O)N4CCCC5(CCNC5=O)C4)cc3Cl)cs2)ccn1 (centres unmarked) [Compound 83, 7-{4-[5-(2-tert-butylpyridin-4-yl)thiophen-3-yl]-3-chlorobenzoyl}-2,7-diazaspiro[4.5]decan-1-one]",0.47 µM,> 10 µM,–
"CC(C)(C)c1cc(-c2cc(-c3ccc(C(=O)N4CCN5CCCC5C4)cc3Cl)cs2)ccn1 (centres unmarked) [Compound 84, 2-tert-butyl-4-[4-(2-chloro-4-{octahydropyrrolo[1,2-a]piperazine-2-carbonyl}phenyl)thiophen-2-yl]pyridine]",> 3 µM,> 10 µM,–
"CC(C)(C)c1cc(-c2nc(-c3ccc(C(=O)N4CCCC(N)C4)cc3Cl)c[nH]2)ccn1 (centres unmarked) [Compound 85, 1-{4-[2-(2-tert-butylpyridin-4-yl)-1H-imidazol-4-yl]-3-chlorobenzoyl}piperidin-3-amine]",–,> 10 µM,> 3 µM
"CC(C)(C)c1cc(-c2csc(-c3ccc(C(=O)N4CCC(O)CC4)cc3Cl)c2)ccn1 [Compound 86, 1-{4-[4-(2-tert-butylpyridin-4-yl)thiophen-2-yl]-3-chlorobenzoyl}piperidin-4-ol]",0.06 µM,> 10 µM,–
"CC(C)(C)c1cc(-c2csc(-c3ccc(C(=O)N4CCC(C(=O)O)CC4)cc3Cl)c2)ccn1 [Compound 88, 1-{4-[4-(2-tert-butylpyridin-4-yl)thiophen-2-yl]-3-chlorobenzoyl}piperidine-4-carboxylic acid]",2.8 µM,> 10 µM,–
"CC(C)(C)c1cc(-c2csc(-c3ccc(C(=O)N4CCCC(O)C4)cc3Cl)c2)ccn1 (centres unmarked) [Compound 89, 1-{4-[4-(2-tert-butylpyridin-4-yl)thiophen-2-yl]-3-chlorobenzoyl}piperidin-3-ol]",0.037 µM,> 10 µM,–
CC(C)(C)OC(=O)NC1CCN(C(=O)c2ccc(-c3csc(-c4ccnc(C(C)(C)C)c4)c3)c(Cl)c2)C1 (centres unmarked) [Compound 90],0.37 µM,> 10 µM,–
CC(C)(C)c1cc(-c2csc(-c3ccc(C(=O)N4CCCC(C(=O)O)C4)cc3Cl)c2)ccn1 (centres unmarked) [Compound 91],0.72 µM,> 10 µM,–
"CC(C)(C)c1cc(-c2csc(-c3ccc(C(=O)N4CCc5nc[nH]c5C4)cc3Cl)c2)ccn1 [Compound 92, 2-tert-butyl-4-[5-(2-chloro-4-{3H,4H,5H,6H,7H-imidazo[4,5-c]pyridine-5-carbonyl}phenyl)thiophen-3-yl]pyridine]",0.74 µM,> 10 µM,–
"CC(C)(C)c1cc(-c2csc(-c3ccc(C(=O)N4CCNC(=O)C4)cc3Cl)c2)ccn1 [Compound 93, 4-{4-[4-(2-tert-butylpyridin-4-yl)thiophen-2-yl]-3-chlorobenzoyl}piperazin-2-one]",0.41 µM,> 10 µM,–
"CC(C)(C)c1cc(-c2csc(-c3ccc(C(=O)N4CCCC(N5CCNC5=O)C4)cc3Cl)c2)ccn1 (centres unmarked) [Compound 94, 1-[1-{4-[4-(2-tert-butylpyridin-4-yl)thiophen-2-yl]-3-chlorobenzoyl}piperidin-3-yl]imidazolidin-2-one]",0.52 µM,> 10 µM,–
"CC1(N)CCCN(C(=O)c2ccc(-c3cc(-c4ccnc(C(C)(C)C)c4)cs3)c(Cl)c2)C1 (centres unmarked) [Compound 95, 1-{4-[4-(2-tert-butylpyridin-4-yl)thiophen-2-yl]-3-chlorobenzoyl}-3-methylpiperidin-3-amine]",0.42 µM,> 10 µM,–

# Further lines, with some results ahead:
"IC50 [1, 3]",Structure (SMILES),IC50 at 24 h [2],IC50 [1]
0.29 µM,"Cc1sc(-c2ccc(C(=O)N3CCC[C@@H](NC(=O)OC(C)(C)C)C3)cc2Cl)cc1-c1ccnc(C(C)(C)C)c1 [Compound 79a, tert-butyl N-[(3R)-1-{4-[4-(2-tert-butylpyridin-4-yl)-5-methylthiophen-2-yl]-3-chlorobenzoyl}piperidin-3-yl]carbamate]",> 10 µM,–
0.52 µM,"Cc1sc(-c2ccc(C(=O)N3CCC[C@H](NC(=O)OC(C)(C)C)C3)cc2Cl)cc1-c1ccnc(C(C)(C)C)c1 [Compound 79b, tert-butyl N-[(3S)-1-{4-[4-(2-tert-butylpyridin-4-yl)-5-methylthiophen-2-yl]-3-chlorobenzoyl}piperidin-3-yl]carbamate]",> 10 µM,–
0.095 µM,"CC(C)(C)c1cc(-c2cc(-c3ccc(C(=O)N4CCC[C@@H](NCc5ccc(Cl)cc5)C4)cc3Cl)cs2)ccn1 [Compound 80a, (R)-(4-(5-(2-(tert-butyl)pyridin-4-yl)thiophen-3-yl)-3-chlorophenyl)(3-((4-chlorobenzyl)amino)piperidin-1-yl)methanone]",> 10 µM,–
0.04 µM,"CC(C)(C)c1cc(-c2cc(-c3ccc(C(=O)N4CCC[C@H](NCc5ccc(Cl)cc5)C4)cc3Cl)cs2)ccn1 [Compound 80b, (S)-(4-(5-(2-(tert-butyl)pyridin-4-yl)thiophen-3-yl)-3-chlorophenyl)(3-((4-chlorobenzyl)amino)piperidin-1-yl)methanone]",> 10 µM,–
> 10 µM,"Cc1sc(-c2ccc(C(=O)N3CCC[C@H](N)C3)cc2Cl)cc1-c1ccnc(C(C)(C)C)c1 [Compound 87a, (3S)-1-{4-[4-(2-tert-butylpyridin-4-yl)-5-methylthiophen-2-yl]-3-chlorobenzoyl}piperidin-3-amine]",> 10 µM,–
> 10 µM,"Cc1sc(-c2ccc(C(=O)N3CCC[C@@H](N)C3)cc2Cl)cc1-c1ccnc(C(C)(C)C)c1 [Compound 87b, (3R)-1-{4-[4-(2-tert-butylpyridin-4-yl)-5-methylthiophen-2-yl]-3-chlorobenzoyl}piperidin-3-amine]",> 10 µM,–
0.03 µM,"CC(C)(C)c1cc(-c2csc(-c3ccc(C(=O)N4CCC[C@@H](O)C4)cc3Cl)c2)ccn1 [Compound 89a, (R)-(4-(4-(2-(tert-butyl)pyridin-4-yl)thiophen-2-yl)-3-chlorophenyl)(3-hydroxypiperidin-1-yl)methanone]",> 10 µM,–
0.02 µM,"CC(C)(C)c1cc(-c2csc(-c3ccc(C(=O)N4CCC[C@H](O)C4)cc3Cl)c2)ccn1 [Compound 89b, (S)-(4-(4-(2-(tert-butyl)pyridin-4-yl)thiophen-2-yl)-3-chlorophenyl)(3-hydroxypiperidin-1-yl)methanone]",> 10 µM,–
